The term EC50 denotes the concentration needed to bring the measured effect to its halfway point. As a reminder, the clearance is the volume of plasma or blood freed of the substance per unit of time. A lower clearance goes with a low capacity for elimination. The term bioavailability denotes dose-corrected exposure relative to a reference, in per cent. As a reminder, the Cmax is the highest concentration seen after dosing. The term Tmax denotes the time from dosing to the highest level.

The values below come from patent EP4810052A2, “HCRHR2 SELECTIVE POLYPEPTIDES” (Gubra A/S, priority 2023, dated 2026).

Read-outs that look alike come from different tables or passages of the source. Starred links: 1 amine or outer side, 2 acyl side, 3 side chain; linkers in the order of their positions; H or OH if unused. Non-standard residues stand in square brackets, D forms with d. Residues, ends and D or L forms follow the SMILES beside them. Groups on a side chain read outwards from the residue. *: point of attachment. C20 diacid = O=C(O)CCCCCCCCCCCCCCCCCCC(=O)*; γGlu = O=C(O)[C@H](CCC(=O)[*:2])N[*:1]; NMeI = CC[C@H](C)[C@H](NC)C(=O)O; Nle = CCCC[C@H](N)C(=O)O; AEEA = NCCOCCOCC(=O)O; Aib = CC(C)(N)C(=O)O

One data set has as its target T1, rCRHR2 (Rattus norvegicus, UniProt P47866).
T1 construct: DYK (FLAG); host or cells: CHO-K1, transiently transfected
In words: cAMP potency, transiently transfected CHO-K1 cells, rCRHR2. The conditions noted are these: transiently transfected CHO-K1, average n=3; read-out: Transient cell system EC50 (nM) rCRHR 2. The format is cell-based. How it is done: Selected peptides were tested for potency on different species (mouse, rat, porcine) using transiently transfected CHO-K1 cells using the general procedure.

The target in the next data set is T2, hCRHR2b (Homo sapiens, UniProt Q13324).
T2 construct: DYK (FLAG); host or cells: CHO-K1, transiently transfected
T2 sequence (Q13324 1-438 isoform Q13324-2): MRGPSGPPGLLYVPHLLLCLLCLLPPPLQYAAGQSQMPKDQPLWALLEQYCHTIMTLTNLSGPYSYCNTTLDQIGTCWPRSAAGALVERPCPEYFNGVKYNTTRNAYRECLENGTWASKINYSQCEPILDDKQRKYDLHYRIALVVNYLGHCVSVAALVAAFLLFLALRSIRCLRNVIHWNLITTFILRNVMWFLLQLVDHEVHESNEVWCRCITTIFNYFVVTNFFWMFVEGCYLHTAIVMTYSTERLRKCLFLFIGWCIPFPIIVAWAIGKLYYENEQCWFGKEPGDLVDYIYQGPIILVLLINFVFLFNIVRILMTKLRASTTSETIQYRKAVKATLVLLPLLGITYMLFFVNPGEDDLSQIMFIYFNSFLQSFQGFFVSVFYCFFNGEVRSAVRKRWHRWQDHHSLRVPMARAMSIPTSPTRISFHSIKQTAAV
In words: cAMP potency, transiently transfected CHO-K1 cells, hCRHR2b. The format is cell-based. As to conditions: transiently transfected CHO-K1, average n=3; read-out: Transient cell system EC50 (nM) hCRHR 2b.

The nature of the next data set: PK in minipigs. As to conditions: male, Göttingen, minipig, in vivo; for half-life: read-out: T½ (converted); for bioavailability / Cmax / Tmax: sc; for Cmax / Tmax: 6.0 nmol/kg s.c. The protocol: Pharmacokinetics studies were determined in male Göttingen minipigs from Ellegaard Göttingen Minipigs A/S. Animals were acclimatised for at least 7 days before placed on study. The minipigs had prior to study been surgically implanted with central venous catheters inserted which were used for blood sampling. Animals were housed under a 12/12 h dark-light cycle with ad libitum access to domestic water and animals were fed a commercially standard maintenance diet twice daily.
Test compounds where administrated either as a cassette or as a single compound. Test compounds were administrated by a single intravenous injection or short infusion (5-10 min) through the implanted catheter or a single subcutaneously injection. The subcutaneously injection was given in the mid neck between ear and scapula with a stopper on the needle, allowing 0.5 cm of the needle to be inserted.Plasma concentration-time profiles employing 12-16 sampling points were obtained from each animal. As an example, blood samples were collected on the following times: 0 (predose), 0.17, 0.33, 0.5, 1, 2, 5, 6, 24, 48, 72, 92, 168, 240 and 336 hrs post administration. Approximately 2 mL blood was drawn from the central catheter from each animal at each sampling point. Blood samples were taken in K2 or K3 EDTA tubes. Blood was kept on ice for maximum 30 min before centrifugation (10 min, 4°C, 2000 x g). Approximately 200 µL plasma samples was transferred to a Micronic tube and stored at -20° or lower.
Pharmacokinetics parameters were calculated by non-compartmental analysis (NCA) of the individual plasma concentrations-time profile from the animals. The log-linear trapezoidal method was used for estimation of AUC and AUMC. The terminal T½ was determined as In(2)/λz where λz is the first order rate constant as determined by the terminal log-linear part of the curve.
Plasma concentrations were measured by LC-MSMS using electrospray ionization and multiple reaction monitoring. Calibration standards and quality control (QC) samples were prepared in specie match matrix. 15 µL calibration standards, QC and study samples were extracted by protein precipitation using 60 µL methanol followed by addition of 45 µL milliQ water. Samples were shaken (800 rpm) at room temperature for 5 min before centrifugation (2570×g, 40 min, 4°C) and the supernatant was transferred to a LoBind PCR plate. Samples were analysed on a Thermo Triscend UHPLC system coupled to a Sciex API 6500+ mass spectrometer. Samples were subject to online SPE clean-up on a HLB column (1×50 mm, Waters) before loaded onto a Aeris Peptide XB C18 column (3.6 µm, 100 Å, 2×50 mm, Phenomenex) analytical column. The mobile phases consisted of acetonitrile and milliQ H2O both containing 0.1% V/V formic acid. The flow rate was 0.60 mL/min and the column was kept at room temperature.

T1 sequence (P47866 whole entry): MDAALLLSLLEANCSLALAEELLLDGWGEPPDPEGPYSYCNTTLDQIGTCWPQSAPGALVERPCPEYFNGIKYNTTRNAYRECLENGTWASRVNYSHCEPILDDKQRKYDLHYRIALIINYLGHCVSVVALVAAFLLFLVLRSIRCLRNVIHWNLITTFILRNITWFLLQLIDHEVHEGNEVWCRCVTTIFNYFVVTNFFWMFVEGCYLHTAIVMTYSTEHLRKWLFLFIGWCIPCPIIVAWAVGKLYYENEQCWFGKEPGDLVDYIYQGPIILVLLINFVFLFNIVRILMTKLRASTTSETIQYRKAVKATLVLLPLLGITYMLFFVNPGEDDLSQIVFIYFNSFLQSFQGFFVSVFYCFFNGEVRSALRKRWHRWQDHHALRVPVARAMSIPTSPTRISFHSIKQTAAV

Take `CC[C@H](C)[C@H](NC)C(=O)N[C@H](C(=O)N[C@@H](CC(C)C)C(=O)N[C@@H](CO)C(=O)N[C@@H](CC(C)C)C(=O)N[C@@H](CC(=O)O)C(=O)N[C@H](C(=O)N1CCC[C@H]1C(=O)N[C@H](C(=O)NCC(=O)N[C@@H](CC(C)C)C(=O)N[C@@H](CC(C)C)C(=O)N[C@@H](CCC(N)=O)C(=O)N[C@H](C(=O)N[C@@H](CC(C)C)C(=O)N[C@@H](CC(C)C)C(=O)N[C@@H](CCC(=O)O)C(=O)N[C@@H](CCC(N)=O)C(=O)N[C@@H](C)C(=O)N[C@@H](CCCNC(=N)N)C(=O)N[C@@H](C)C(=O)N[C@@H](CCCNC(=N)N)C(=O)N[C@@H](C)C(=O)N[C@@H](C)C(=O)N[C@@H](CCCNC(=N)N)C(=O)N[C@@H](CCC(=O)O)C(=O)N[C@@H](CCC(N)=O)C(=O)N[C@@H](C)C(=O)N[C@H](C(=O)N[C@@H](CCCCNC(=O)COCCOCCNC(=O)COCCOCCNC(=O)CC[C@H](NC(=O)CC[C@H](NC(=O)CCCCCCCCCCCCCCCCCCC(=O)O)C(=O)O)C(=O)O)C(=O)N[C@@H](CC(N)=O)C(=O)N[C@@H](C)C(=O)N[C@@H](CCC(=O)O)C(=O)N[C@H](C(=O)N[C@@H](CC(C)C)C(=O)N[C@@H](C)C(=O)N[C@@H](CCC(=O)O)C(=O)N[C@H](C(N)=O)C(C)C)[C@@H](C)CC)[C@@H](C)O)[C@@H](C)CC)[C@@H](C)CC)C(C)C)C(C)C` [SEQ ID NO: 6] (H-[NMeI]VLSLDVPIGLLQILLEQARARAAREQATK([AEEA-AEEA-γGlu-γGlu-C20 diacid])NAEILAEV-NH2): the concentration for a half-maximal effect (EC50) was determined as 0.13 nM at rCRHR2 and 0.015 nM at hCRHR2b. Further, in the data set “PK in minipigs” (iv, Pig, 6.0 nmol/kg i.v.), the half-life is 145 h.
Turning to `CCCC[C@H](NC(=O)[C@@H](NC(=O)[C@H](CCC(=O)O)NC(=O)C(C)(C)NC(=O)[C@H](CC(N)=O)NC(=O)[C@@H](NC(=O)[C@H](CCCCNC(=O)COCCOCCNC(=O)COCCOCCNC(=O)CC[C@H](NC(=O)CC[C@H](NC(=O)CCCCCCCCCCCCCCCCCCC(=O)O)C(=O)O)C(=O)O)NC(=O)[C@H](C)NC(=O)[C@H](CCC(N)=O)NC(=O)[C@H](CCC(=O)O)NC(=O)[C@H](CCCNC(=N)N)NC(=O)[C@H](C)NC(=O)[C@H](C)NC(=O)[C@H](CCCNC(=N)N)NC(=O)[C@H](C)NC(=O)[C@H](CCCNC(=N)N)NC(=O)[C@H](C)NC(=O)[C@H](CCC(N)=O)NC(=O)[C@H](CO)NC(=O)[C@H](CC(C)C)NC(=O)[C@H](CC(C)C)NC(=O)[C@@H](NC(=O)[C@H](CCC(N)=O)NC(=O)[C@H](CC(C)C)NC(=O)[C@H](CC(C)C)NC(=O)CNC(=O)[C@@H](NC(=O)[C@@H]1CCCN1C(=O)[C@@H](NC(=O)[C@H](CC(=O)O)NC(=O)[C@H](CC(C)C)NC(=O)[C@H](CO)NC(=O)[C@H](CC(C)C)NC(=O)[C@@H](NC(=O)[C@@H](NC)[C@@H](C)CC)C(C)C)C(C)C)[C@@H](C)CC)[C@@H](C)CC)[C@@H](C)O)[C@@H](C)CC)C(=O)N[C@@H](C)C(=O)N[C@@H](CCC(=O)O)C(=O)N[C@H](C(N)=O)C(C)C` [SEQ ID NO: 215] (H-[NMeI]VLSLDVPIGLLQILLSQARARAAREQAK([AEEA-AEEA-γGlu-γGlu-C20 diacid])TN[Aib]EI[Nle]AEV-NH2), the EC50 at rCRHR2 was determined as 0.072 nM. Moreover, at hCRHR2b, the half-maximal effective concentration (EC50) came to 0.016 nM. Also, in “PK in minipigs” (iv, Pig, 4.2 nmol/kg i.v.), the clearance is 7.2 mL/day/kg and the half-life is 156 h. For the same molecule, the bioavailability in “PK in minipigs” worked out at 68%. Also, in the data set “PK in minipigs” (Pig), the maximum concentration (Cmax) turned out to be 38 nM and the Tmax amounted to 24 h.
In the case of `CC[C@H](C)[C@H](NC)C(=O)N[C@H](C(=O)N[C@@H](CC(C)C)C(=O)N[C@@H](CO)C(=O)N[C@@H](CC(C)C)C(=O)N[C@@H](CC(=O)O)C(=O)N[C@H](C(=O)N1CCC[C@H]1C(=O)N[C@H](C(=O)NCC(=O)N[C@@H](CC(C)C)C(=O)N[C@@H](CC(C)C)C(=O)N[C@@H](CCC(N)=O)C(=O)N[C@H](C(=O)N[C@@H](CC(C)C)C(=O)N[C@@H](CC(C)C)C(=O)N[C@@H](CCC(=O)O)C(=O)N[C@@H](CCC(N)=O)C(=O)N[C@@H](C)C(=O)N[C@@H](CCCNC(=N)N)C(=O)N[C@@H](C)C(=O)N[C@@H](CCCNC(=N)N)C(=O)N[C@@H](C)C(=O)N[C@@H](C)C(=O)N[C@@H](CCCNC(=N)N)C(=O)N[C@@H](CCC(=O)O)C(=O)N[C@@H](CCC(N)=O)C(=O)N[C@@H](C)C(=O)N[C@@H](CCCCNC(=O)COCCOCCNC(=O)COCCOCCNC(=O)CC[C@H](NC(=O)CC[C@H](NC(=O)CCCCCCCCCCCCCCCCCCC(=O)O)C(=O)O)C(=O)O)C(=O)N[C@H](C(=O)N[C@@H](CC(N)=O)C(=O)NC(C)(C)C(=O)N[C@@H](CCC(=O)O)C(=O)N[C@H](C(=O)N[C@@H](CC(C)C)C(=O)N[C@@H](C)C(=O)N[C@@H](CCC(=O)O)C(=O)N[C@H](C(N)=O)C(C)C)[C@@H](C)CC)[C@@H](C)O)[C@@H](C)CC)[C@@H](C)CC)C(C)C)C(C)C` [SEQ ID NO: 16] (H-[NMeI]VLSLDVPIGLLQILLEQARARAAREQAK([AEEA-AEEA-γGlu-γGlu-C20 diacid])TN[Aib]EILAEV-NH2), the EC50 on rCRHR2 stood at 0.19 nM. The half-maximal effective concentration (EC50) on hCRHR2b stood at 0.012 nM. Besides, the half-life in the data set “PK in minipigs” (iv, Pig, 4.6 nmol/kg i.v.) is 208 h. Further, the bioavailability in the data set “PK in minipigs” is 66%. Moreover, in the data set “PK in minipigs” (Pig), the Cmax came out at 35 nM and the Tmax amounted to 48 h.
Take `CC[C@H](C)[C@H](N)C(=O)N[C@H](C(=O)N[C@@H](CC(C)C)C(=O)N[C@@H](CO)C(=O)N[C@@H](CC(C)C)C(=O)N[C@@H](CC(=O)O)C(=O)N[C@H](C(=O)N1CCC[C@H]1C(=O)N[C@H](C(=O)NCC(=O)N[C@@H](CC(C)C)C(=O)N[C@@H](CC(C)C)C(=O)N[C@@H](CCC(N)=O)C(=O)N[C@H](C(=O)N[C@@H](CC(C)C)C(=O)N[C@@H](CC(C)C)C(=O)N[C@@H](CCC(=O)O)C(=O)N[C@@H](CCC(N)=O)C(=O)N[C@@H](C)C(=O)N[C@@H](CCCNC(=N)N)C(=O)N[C@@H](C)C(=O)N[C@@H](CCCNC(=N)N)C(=O)N[C@@H](C)C(=O)N[C@@H](C)C(=O)N[C@@H](CCCNC(=N)N)C(=O)N[C@@H](CCC(=O)O)C(=O)N[C@@H](CCC(N)=O)C(=O)N[C@@H](C)C(=O)N[C@@H](CCCCNC(=O)COCCOCCNC(=O)COCCOCCNC(=O)CC[C@H](NC(=O)CC[C@H](NC(=O)CCCCCCCCCCCCCCCCCCC(=O)O)C(=O)O)C(=O)O)C(=O)N[C@H](C(=O)N[C@@H](CC(N)=O)C(=O)N[C@@H](C)C(=O)N[C@@H](CCC(=O)O)C(=O)N[C@H](C(=O)N[C@@H](CC(C)C)C(=O)N[C@@H](C)C(=O)N[C@@H](CCC(=O)O)C(=O)N[C@H](C(N)=O)C(C)C)[C@@H](C)CC)[C@@H](C)O)[C@@H](C)CC)[C@@H](C)CC)C(C)C)C(C)C` [SEQ ID NO: 3] (H-IVLSLDVPIGLLQILLEQARARAAREQAK([AEEA-AEEA-γGlu-γGlu-C20 diacid])TNAEILAEV-NH2): on rCRHR2, the EC50 was 0.07 nM. The half-maximal effective concentration (EC50) on hCRHR2b is 0.0081 nM. Also, in “PK in minipigs” (iv, Pig, 6.0 nmol/kg i.v.), the half-life is 156 h. In addition, in “PK in minipigs”, the bioavailability was 55%. In the data set “PK in minipigs” (Pig), the highest level (Cmax) was 60 nM and the Tmax came to 24 h.
